Results taken from PMC3654088 (Cell metabolism, 2013).

Target: T1, Tam41 (Saccharomyces cerevisiae, UniProt P53230)
T1 sequence (P53230 27-385): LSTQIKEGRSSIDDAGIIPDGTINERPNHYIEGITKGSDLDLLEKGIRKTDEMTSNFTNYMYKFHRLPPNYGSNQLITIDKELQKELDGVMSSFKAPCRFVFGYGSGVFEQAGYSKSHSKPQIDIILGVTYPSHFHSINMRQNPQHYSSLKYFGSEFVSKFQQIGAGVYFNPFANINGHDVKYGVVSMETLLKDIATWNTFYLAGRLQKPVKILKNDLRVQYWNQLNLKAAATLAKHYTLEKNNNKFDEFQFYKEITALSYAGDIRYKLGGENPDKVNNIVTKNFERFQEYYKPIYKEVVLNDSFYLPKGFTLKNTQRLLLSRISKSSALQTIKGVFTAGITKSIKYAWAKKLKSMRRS
Test: CDP-DAG formation, TLC with fluorescence imaging
Format: biochemical
Details: 2 mM CTP; 2 mM MgCl2; Tris-HCl pH 7.5; 0.2% Triton X-100; 30 °C; 10 min; labelled compound

Km: 67 ± 10 µM
Substance: NBD-PA
